Results on 23 compounds are retold here after patent publication US9546164B2 (GENENTECH, INC., priority 2013, dated 2017).

Counter-ions that a name gives are not always drawn.

The target in the first assay is hNav1.7 (Homo sapiens (Human), UniProt Q15858). Kind of assay: Tritiated sulfonamide competitive binding to membranes from cells expressing hNav1.7 and the β1 subunit.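 Further: Filter-bound radioactivity counted by liquid scintillation, nonspecific binding defined with excess unlabelled ligand, IC50 fitted to percent inhibition of specific binding.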
Sequence of hNav1.7 (Q15858 other isoform, or with tags, fused parts or gaps): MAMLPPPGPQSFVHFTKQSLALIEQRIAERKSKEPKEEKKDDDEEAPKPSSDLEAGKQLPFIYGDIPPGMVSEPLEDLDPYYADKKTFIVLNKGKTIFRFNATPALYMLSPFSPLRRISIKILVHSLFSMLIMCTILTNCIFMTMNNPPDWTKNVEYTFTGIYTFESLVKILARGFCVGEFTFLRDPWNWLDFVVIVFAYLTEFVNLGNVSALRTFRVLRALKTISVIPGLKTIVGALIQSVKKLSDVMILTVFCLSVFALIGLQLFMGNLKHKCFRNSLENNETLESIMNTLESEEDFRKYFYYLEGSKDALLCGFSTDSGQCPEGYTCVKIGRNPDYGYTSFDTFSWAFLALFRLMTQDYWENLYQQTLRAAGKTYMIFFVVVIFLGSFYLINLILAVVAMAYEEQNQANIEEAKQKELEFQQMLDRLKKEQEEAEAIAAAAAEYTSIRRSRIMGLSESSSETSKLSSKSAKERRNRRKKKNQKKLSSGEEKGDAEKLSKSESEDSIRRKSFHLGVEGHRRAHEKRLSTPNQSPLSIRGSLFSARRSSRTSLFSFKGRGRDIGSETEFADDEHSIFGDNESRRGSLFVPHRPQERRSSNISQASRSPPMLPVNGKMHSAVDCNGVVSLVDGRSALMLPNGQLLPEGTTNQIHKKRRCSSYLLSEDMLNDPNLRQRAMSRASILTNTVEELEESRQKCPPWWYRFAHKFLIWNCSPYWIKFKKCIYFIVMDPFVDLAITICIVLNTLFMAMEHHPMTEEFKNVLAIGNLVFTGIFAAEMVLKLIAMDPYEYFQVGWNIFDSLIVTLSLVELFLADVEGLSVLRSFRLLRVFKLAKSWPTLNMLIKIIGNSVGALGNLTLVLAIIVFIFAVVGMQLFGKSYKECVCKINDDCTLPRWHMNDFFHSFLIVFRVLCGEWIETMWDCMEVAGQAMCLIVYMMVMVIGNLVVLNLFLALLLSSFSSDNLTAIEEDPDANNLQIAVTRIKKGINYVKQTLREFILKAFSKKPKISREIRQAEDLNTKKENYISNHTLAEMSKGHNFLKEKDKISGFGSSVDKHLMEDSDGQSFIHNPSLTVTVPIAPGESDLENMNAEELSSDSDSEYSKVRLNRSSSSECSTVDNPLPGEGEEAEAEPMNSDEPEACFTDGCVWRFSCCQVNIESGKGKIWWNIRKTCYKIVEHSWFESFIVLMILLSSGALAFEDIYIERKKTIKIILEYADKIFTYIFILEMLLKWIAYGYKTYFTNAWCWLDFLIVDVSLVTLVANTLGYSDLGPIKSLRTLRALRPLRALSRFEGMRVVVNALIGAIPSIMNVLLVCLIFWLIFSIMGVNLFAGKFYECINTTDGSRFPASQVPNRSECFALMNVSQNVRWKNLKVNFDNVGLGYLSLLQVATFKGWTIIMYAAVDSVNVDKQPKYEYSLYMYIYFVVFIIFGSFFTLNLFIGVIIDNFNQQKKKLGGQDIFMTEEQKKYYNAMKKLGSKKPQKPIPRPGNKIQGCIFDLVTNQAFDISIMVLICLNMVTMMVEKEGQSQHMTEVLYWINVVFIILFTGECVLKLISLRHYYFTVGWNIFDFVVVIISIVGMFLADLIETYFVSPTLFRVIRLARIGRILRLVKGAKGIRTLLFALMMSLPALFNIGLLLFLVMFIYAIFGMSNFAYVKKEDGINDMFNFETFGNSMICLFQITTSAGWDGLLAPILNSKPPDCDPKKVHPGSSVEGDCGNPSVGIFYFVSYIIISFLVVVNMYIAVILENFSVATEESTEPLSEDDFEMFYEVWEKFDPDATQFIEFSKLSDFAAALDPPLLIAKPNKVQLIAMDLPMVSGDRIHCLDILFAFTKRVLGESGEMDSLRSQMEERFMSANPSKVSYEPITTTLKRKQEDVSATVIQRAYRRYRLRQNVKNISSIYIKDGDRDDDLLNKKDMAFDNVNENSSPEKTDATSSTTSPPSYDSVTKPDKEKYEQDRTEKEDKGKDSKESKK
Sequence of hNav1.7 (Q07699 19-218 partner): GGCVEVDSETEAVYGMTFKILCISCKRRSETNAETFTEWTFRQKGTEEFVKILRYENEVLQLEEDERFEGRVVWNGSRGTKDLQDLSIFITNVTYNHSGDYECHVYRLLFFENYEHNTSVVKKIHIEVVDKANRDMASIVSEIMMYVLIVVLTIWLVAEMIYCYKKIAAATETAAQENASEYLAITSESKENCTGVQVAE
Details: not given
As to `O=C(NS(=O)(=O)C1CC1)c1cc(C2CC2)c(O[C@@H]2CCCN(c3cc(Cl)cc(Cl)c3)C2)cc1F` [Example 42, (R)-5-cyclopropyl-N-(cyclopropylsulfonyl)-4-((1-(3,5-dichlorophenyl)piperidin-3-yl)oxy)-2-fluorobenzamide], the IC50 worked out at 2.1 nM.
Take `CS(=O)(=O)NC(=O)c1cc(C2CC2)c(CN2CCC(Oc3cc(C(F)(F)F)cc(Cl)c3F)CC2)cc1F` [Example 536, 4-((4-(3-Chloro-2-fluoro-5-(trifluoromethyl)phenoxy)piperidin-1-yl)methyl)-5-cyclopropyl-2-fluoro-N-(methylsulfonyl)benzamide, trifluoroacetic acid salt]: the IC50 is 5 nM.
Compound `C[C@@H](c1cc(Cl)cc(Cl)c1)N1C[C@@H]2C[C@H]1CN2Cc1cc(F)c(C(=O)NS(=O)(=O)C2CC2)cc1C1CC1` [Example 564, 5-cyclopropyl-N-(cyclopropylsulfonyl)-4-(((1S,4S)-5-((S)-1-(3,5-dichlorophenyl)ethyl)-2,5-diazabicyclo[2.2.1]heptan-2-yl)methyl)-2-fluorobenzamide, trifluoroacetic acid salt] had an IC50 of 3.6 nM.
The same measure, in the same setting: next, `CS(=O)(=O)NC(=O)c1cc(C2CC2)c(OCC2CN([C@H](c3ccccc3)c3ccc(C#N)cc3)C2)cc1F` [Example 111, (R)-4-((1-((4-Cyanophenyl)(phenyl)methyl)azetidin-3-yl)methoxy)-5-cyclopropyl-2-fluoro-N-(methylsulfonyl)benzamide]: 20.4 nM.

The assay is the same for the next values; noted with them: read-out: Ligand Binding Assay; 100 pM [3H]compound, membranes with hNav1.7 and β1 subunit, 18 h, room temperature.
For the compound `O=C(NS(=O)(=O)N1CCC1)c1cc(C2CC2)c(OCC2CCN(C(c3ccc(F)cc3)c3ccc(F)cc3)CC2)cc1F` [Example 419, N-azetidin-1-ylsulfonyl)-4-((1-(bis(4-fluorophenyl)methyl)piperidin-4-yl)methoxy)-5-cyclopropyl-2-fluorobenzamide, trifluoroacetic acid salt], the IC50 is 5.2 nM.
On to `C[C@@H](c1cc(Cl)cc(C(F)(F)F)c1)N1CCC(COc2cc(F)c(C(=O)NS(C)(=O)=O)cc2C2CC2)CC1` (single isomer, unassigned) [Example 277], for which the IC50 is 4 nM.
Same read-out and setting: to `CS(=O)(=O)NC(=O)c1cc(C2CC2)c(OCC2CCN(Cc3ccc(OC(F)(F)F)cc3)CC2)cc1F` [Example 135] belongs 15.5 nM; to `C[C@@H](c1cc(Cl)cc(Cl)c1)N1CCC(F)(COc2cc(F)c(C(=O)NS(C)(=O)=O)cc2C2CC2)CC1` [Example 349, (S)-5-cyclopropyl-4-((1-(1-(3,5-dichlorophenyl)ethyl)-4-fluoropiperidin-4-yl)methoxy)-2-fluoro-N-(methylsulfonyl)benzamide, trifluoroacetic acid salt], 4 nM; to `CC1(COc2cc(F)c(C(=O)NS(=O)(=O)C3CC3)cc2C2CC2)CN(c2ccncc2C(F)(F)F)C1` [Example 489, 5-cyclopropyl-N-(cyclopropylsulfonyl)-2-fluoro-4-((3-methyl-1-(3-(trifluoromethyl)pyridin-4-yl)azetidin-3-yl)methoxy)benzamide, trifluoroacetic acid salt], 103 nM.
Turning to `CS(=O)(=O)NC(=O)c1cc(C2CC2)c(OCC2CCN(S(=O)(=O)c3cc(Cl)c(Br)cc3F)CC2)cc1F` [Example 366, 4-((1-((4-bromo-5-chloro-2-fluorophenyl)sulfonyl)piperidin-4-yl)methoxy)-5-cyclopropyl-2-fluoro-N-(methylsulfonyl)benzamide], the IC50 came to 9.1 nM.
With `O=C(NS(=O)(=O)C1CC1)c1cc(C2CC2)c(OCC2CCN(Cc3ccc(Br)cc3Cl)CC2)cc1F` [Example 414, 4-((1-(4-bromo-2-chlorobenzyl)piperidin-4-yl)methoxy)-5-cyclopropyl-N-(cyclopropylsulfonyl)-2-fluorobenzamide, trifluoroacetic acid salt], the IC50 was 3.8 nM.
The same measure, in the same setting: next, `O=C(NS(=O)(=O)C1CC1)c1cc(C2CC2)c(CN2CCC[C@H](Oc3cc(Cl)cc(Cl)c3)C2)cc1F` [Example 53, (S)-5-cyclopropyl-N-(cyclopropylsulfonyl)-4-((3-(3,5-dichlorophenoxy)-piperidin-1-yl)methyl)-2-fluorobenzamide]: 8 nM; `CS(=O)(=O)NC(=O)c1cc(C2CC2)c(OCC2CCN(S(=O)(=O)C3CCOCC3)CC2)cc1F` [Example 376, 5-cyclopropyl-2-fluoro-N-(methylsulfonyl)-4-((1-((tetrahydro-2H-pyran-4-yl)sulfonyl)piperidin-4-yl)methoxy)benzamide]: 2450 nM.
`CS(=O)(=O)NC(=O)c1cc(C2CC2)c(OCC2CCN([C@@H](c3cc(Cl)cc(Cl)c3)C(F)F)CC2)cc1F` (single isomer, unassigned) [Example 224]: the IC50 was determined as 4.5 nM.
The same measure, in the same setting: to `CCS(=O)(=O)NC(=O)c1cc(C2CC2)c(OCC2(C)CN([C@@H](C)c3cc(Cl)cc(Cl)c3)C2)cc1F` (single isomer, unassigned) [Example 289] belongs 3.5 nM.
For `CC1(COc2cc(F)c(C(=O)NS(C)(=O)=O)cc2C2CC2)CCN(Cc2cc(Cl)ccc2C(F)(F)F)CC1` [Example 122], the IC50 worked out at 2.4 nM.
On the same count and under the same terms, next, `CS(=O)(=O)NC(=O)c1cc(C2CC2)c(CN2CCO[C@H](Cc3ccc(Cl)c(Cl)c3)C2)cc1F` [Example 458, (R)-5-cyclopropyl-4-((2-(3,4-dichlorobenzyl)morpholino)methyl)-2-fluoro-N-(methylsulfonyl)benzamide]: 4.4 nM; `O=C(NS(=O)(=O)C1CC1)c1cc(C2CC2)c(OCC2CCN(CCC(F)(F)F)CC2)cc1F` [Example 193, 5-Cyclopropyl-N-(cyclopropylsulfonyl)-2-fluoro-4-((1-(3,3,3-trifluoropropyl)piperidin-4-yl)methoxy)benzamide]: 52 nM; `C[C@H](c1cc(Cl)cc(Cl)c1)N1CCC(C#N)(COc2cc(F)c(C(=O)NS(C)(=O)=O)cc2C2CC2)CC1` [Example 597]: 27.6 nM.
Turning to `CS(=O)(=O)NC(=O)c1cc(C2CC2)c(OCC2CCN(Cc3ccc(Cl)cc3C(F)(F)F)CC2)cc1F` [Example 579, 4-((1-(4-chloro-2-(trifluoromethyl)benzyl)piperidin-4-yl)methoxy)-5-cyclopropyl-2-fluoro-N-(methylsulfonyl)benzamide], the IC50 was 2.9 nM.
The same measure, in the same setting: next, `CC(c1cc(Cl)cc(Cl)c1)N1CCC(COc2cc(F)c(C(=O)NS(=O)(=O)N3CCC3)cc2C2CC2)CC1` (centres unmarked) [Example 103, N-(Azetidin-1-ylsulfonyl)-5-cyclopropyl-4-((1-(1-(3,5-dichlorophenyl)-ethyl)piperidin-4-yl)methoxy)-2-fluorobenzamide]: 5.24 nM.
`CCS(=O)(=O)NC(=O)c1cc(C2CC2)c(OCC2CCN(C(C)(C)c3cc(Cl)cc(Cl)c3)CC2)cc1F` [Example 210, 5-Cyclopropyl-4-((1-(2-(3,5-dichlorophenyl)propan-2-yl)piperidin-4-yl)methoxy)-N-(ethylsulfonyl)-2-fluorobenzamide]: the IC50 amounted to 1.9 nM.
Still for that read-out and setting: next, `C[C@@H](c1cc(Cl)cc(Cl)c1)N1CCC(COc2cc(F)c(C(=O)NS(=O)(=O)C3CC3)cc2Cl)CC1` [Example 403, (S)-5-chloro-N-(cyclopropylsulfonyl)-4-((1-(1-(3,5-dichlorophenyl)ethyl)piperidin-4-yl)methoxy)-2-fluorobenzamide, trifluoroacetic acid salt]: 17 nM.
